Measurements reported in publication PMC2962730 (Journal of neurochemistry, 2010).
Changes are numbered by the printed parent chain.

What was measured:
hVAChT M320A = target: T1, hVAChT M320A (Homo sapiens, UniProt Q16572, M320A); assay: [3H]vesamicol saturation binding; conditions: pH 7.4
T1 sequence (Q16572 1-532 M320A): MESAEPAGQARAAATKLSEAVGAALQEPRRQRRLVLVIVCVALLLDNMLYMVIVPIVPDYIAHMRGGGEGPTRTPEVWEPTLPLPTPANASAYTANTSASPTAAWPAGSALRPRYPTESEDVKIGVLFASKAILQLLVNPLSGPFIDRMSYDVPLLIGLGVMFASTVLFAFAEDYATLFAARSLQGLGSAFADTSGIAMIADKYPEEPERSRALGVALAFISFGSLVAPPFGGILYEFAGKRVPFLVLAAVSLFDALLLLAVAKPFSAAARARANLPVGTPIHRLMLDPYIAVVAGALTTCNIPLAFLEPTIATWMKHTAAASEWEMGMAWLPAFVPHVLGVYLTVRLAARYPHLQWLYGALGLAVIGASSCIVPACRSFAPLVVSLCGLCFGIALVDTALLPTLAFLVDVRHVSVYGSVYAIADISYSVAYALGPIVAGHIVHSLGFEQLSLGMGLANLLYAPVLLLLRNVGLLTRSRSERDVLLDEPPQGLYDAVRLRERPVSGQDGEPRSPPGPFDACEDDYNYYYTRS

hVAChT A321F = target: T2, hVAChT A321F (Homo sapiens, UniProt Q16572, A321F); assay: [3H]vesamicol saturation binding; conditions: pH 7.4
T2 sequence (Q16572 1-532 A321F): T1 sequence (Q16572 1-532 M320A) with A320M, A321F

hVAChT A330V [1] = target: T3, hVAChT A330V (Homo sapiens, UniProt Q16572, A330V); assay: [3H]vesamicol saturation binding; conditions: pH 7.4
T3 sequence (Q16572 1-532 A330V): T1 sequence (Q16572 1-532 M320A) with A320M, A330V

VAChT F335A = conditions: ref Ojeda et al. (2004); cited from earlier work
hVAChT Y60W = target: T4, hVAChT Y60W (Homo sapiens, UniProt Q16572, Y60W); assay: ACh equilibrium binding by competition against [3H]vesamicol
T4 sequence (Q16572 1-532 Y60W): T1 sequence (Q16572 1-532 M320A) with Y60W, A320M

hVAChT W325H = target: T5, hVAChT W325H (Homo sapiens, UniProt Q16572, W325H); assay: as above
T5 sequence (Q16572 1-532 W325H): T1 sequence (Q16572 1-532 M320A) with A320M, W325H

hVAChT A330V [2] = target: T3, hVAChT A330V; assay: [3H]ACh transport; type: biochemical

| Kd (hVAChT Y60W) [mM] | tighter binding of ACh than by wild-type (hVAChT Y60W; Y60W hVAChT vs wild-type) [fold] | FHA, fraction of the ACh sites that have high affinity (hVAChT Y60W; Y60W hVAChT, pH 7.4) | Kd (hVAChT W325H) [mM] | FHA, fraction of the ACh sites that have high affinity (hVAChT W325H; W325H hVAChT, pH 7.4) | Vmax/Bmax, ACh transport normalized to Bmax (hVAChT A330V [2]; pH 7.4) [min⁻¹] | Km (hVAChT A330V [2]; read-out: KM, Michaelis-Menten constant for ACh transport, pH 7.4) [µM] | Compound | Bmax, maximal specific [3H]vesamicol binding (VAChT expression level) (hVAChT M320A) [pmol/mg] | Bmax, maximal specific [3H]vesamicol binding (VAChT expression level) (hVAChT A321F) [pmol/mg] | Bmax, maximal specific [3H]vesamicol binding (VAChT expression level) (hVAChT A330V [1]) [pmol/mg] | weaker binding of vesamicol (VAChT F335A) |
| --- | --- | --- | --- | --- | --- | --- | --- | --- | --- | --- | --- |
|  |  |  |  |  |  |  | O[C@@H]1CCCC[C@H]1N1CCC(c2ccccc2)CC1 (racemic) [vesamicol, ( )-trans-2-(4-phenylpiperidino)cyclohexanol] | 62 ± 5 | 21 ± 1 | 21 ± 0 | ~ 3 fold |
| 4.5 ± 0.1 | 2 | 0.86 ± 0.02 | 5.5 ± 0.9 | 0.82± 0.06 | 6.3 ± 1.3 | 2200 ± 900 | CC(=O)OCC[N+](C)(C)C [ACh, acetylcholine] |  |  |  |  |
